# Test results from PubChem BioAssay AID248 (DTP/NCI, 2004).
# Where “and” joins values, the source holds several entries; their conditions need not be identical. Identical values can stand only once. Toxic doses and inconclusive results are not listed.
# Test system: L1210 leukemia ip in BDF1 mice, survival T/C
# Assay: NCI In Vivo Anticancer Drug Screen. Data for tumor model L1210 Leukemia (intraperitoneal) in B6D2F1 (BDF1) mice
# Conditions: endpoint: mean survival time, higher = longer survival
# Summary of the method: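 Tumor was transplanted into mice, which were then dosed with test compound or vehicle alone. Survival was recorded for each group, and the treated figure was expressed relative to the control figure.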
# [1] = dose: 100.0 mg/kg/injection, schedule: Q01DX001 (ip), vehicle: saline
# [2] = dose: 200.0 mg/kg/injection, schedule: Q01DX001 (ip), vehicle: saline
# [3] = dose: 400.0 mg/kg/injection, schedule: Q01DX001 (ip), vehicle: saline
# [4] = dose: 100.0 mg/kg/injection, schedule: Q01DX009 (ip), vehicle: Klucel (hydroxypropylcellulose) (HPC)
# [5] = dose: 100.0 mg/kg/injection, schedule: Q04DX003 (ip), vehicle: Klucel (hydroxypropylcellulose) (HPC)
# [6] = dose: 200.0 mg/kg/injection, schedule: Q01DX009 (ip), vehicle: Klucel (hydroxypropylcellulose) (HPC)
# [7] = dose: 200.0 mg/kg/injection, schedule: Q04DX003 (ip), vehicle: Klucel (hydroxypropylcellulose) (HPC)
# [8] = dose: 400.0 mg/kg/injection, schedule: Q04DX003 (ip), vehicle: Klucel (hydroxypropylcellulose) (HPC)
# [9] = dose: 100.0 mg/kg/injection, schedule: Q04DX003 (ip), vehicle: saline
# [10] = dose: 200.0 mg/kg/injection, schedule: Q04DX003 (ip), vehicle: saline
# [11] = dose: 400.0 mg/kg/injection, schedule: Q04DX003 (ip), vehicle: saline
# [12] = dose: 100.0 mg/kg/injection, schedule: Q04DX003 (ip), vehicle: saline with Tween-80
# [13] = dose: 200.0 mg/kg/injection, schedule: Q04DX003 (ip), vehicle: saline with Tween-80
# [14] = dose: 400.0 mg/kg/injection, schedule: Q04DX003 (ip), vehicle: saline with Tween-80
compound,measurement,setting,value
O=C1CCOP(=O)(NCCCl)N1CCCl (configuration not stated),T/C,"dose: 100.0 mg/kg/injection, schedule: Q04DX002 (ip), vehicle: saline",115 % of control
same,T/C,"dose: 400.0 mg/kg/injection, schedule: Q04DX002 (ip), vehicle: saline",175 % of control
Cn1c(=O)cc(C=Nc2ccc(S(N)(=O)=O)cc2)c2ccccc21,T/C,[1],102 % of control
same,T/C,[2],100 % of control
same,T/C,[3],98 % of control
O=C(NNC(=O)OCc1ccccc1)OCc1ccccc1,T/C,[4],104 % of control
same,T/C,[5],97 % of control
same,T/C,[6],113 % of control
same,T/C,[7],97 % of control
same,T/C,[8],97 % of control
CCNCC#CCNCC,T/C,"dose: 100.0 mg/kg/injection, schedule: Q01DX009 (ip), vehicle: saline",96 % of control
same,T/C,[9],96 % of control
same,T/C,"dose: 200.0 mg/kg/injection, schedule: Q01DX009 (ip), vehicle: saline",107 % of control
same,T/C,[10],98 % of control
same,T/C,[11],99 % of control
c1ccc(-c2ccc([Si](c3ccccc3)(c3ccccc3)c3ccc(-c4ccccc4)cc3)cc2)cc1,T/C,"dose: 50.0 mg/kg/injection, schedule: Q01DX009 (ip), vehicle: Klucel (hydroxypropylcellulose) (HPC)",104 % of control
same,T/C,"dose: 50.0 mg/kg/injection, schedule: Q04DX003 (ip), vehicle: Klucel (hydroxypropylcellulose) (HPC)",94 % of control
same,T/C,[4],93 % of control
same,T/C,[5],96 % of control
same,T/C,[6],87 % of control
same,T/C,[7],98 % of control
c1ccc2c(c1)OC1(CCSCC1)O2,T/C,[12],98 % of control
same,T/C,[13],95 % of control
same,T/C,[14],97 % of control
c1ccc(Sc2ncnc3nc[nH]c23)nc1,T/C,"dose: 267.0 mg/kg/injection, schedule: Q01DX001 (ip), vehicle: saline with Tween-80",110 % of control
Cc1cccc(C)c1N=C=O,T/C,"dose: 100.0 mg/kg/injection, schedule: Q01DX009 (ip), vehicle: other",93 % of control
same,T/C,[12],105 % of control
same,T/C,"dose: 200.0 mg/kg/injection, schedule: Q01DX009 (ip), vehicle: other",106 % of control
same,T/C,[13],100 % of control
same,T/C,[14],109 % of control
S=C(Nc1ccccc1)N1CCN2CCCCC2C1 (configuration not stated),T/C,"dose: 75.0 mg/kg/injection, schedule: Q01DX001 (ip), vehicle: acetone",100 % of control
same,T/C,"dose: 150.0 mg/kg/injection, schedule: Q01DX001 (ip), vehicle: acetone",107 % of control
same,T/C,"dose: 300.0 mg/kg/injection, schedule: Q01DX001 (ip), vehicle: acetone",92 % of control
C(=C\c1nc2ccccc2s1)/c1ccccc1,T/C,[9],103 % of control
same,T/C,[10],93 % of control
same,T/C,[11],104 % of control
CCOP(=O)(OCC)SC=C(Cl)Cl,T/C,"dose: 25.0 mg/kg/injection, schedule: Q04DX002 (ip), vehicle: saline with Tween-80",94 % of control
same,T/C,"dose: 50.0 mg/kg/injection, schedule: Q04DX002 (ip), vehicle: saline with Tween-80",91 % of control
same,T/C,"dose: 100.0 mg/kg/injection, schedule: Q04DX002 (ip), vehicle: saline with Tween-80",94 % of control and 95 % of control
O=C1c2ccccc2C(=O)N1CCc1ccccc1,T/C,[4],93 % of control
same,T/C,[5],97 % of control and 101 % of control
same,T/C,[6],96 % of control
same,T/C,[7],94 % of control and 97 % of control
same,T/C,"dose: 400.0 mg/kg/injection, schedule: Q01DX009 (ip), vehicle: Klucel (hydroxypropylcellulose) (HPC)",95 % of control
same,T/C,[8],94 % of control and 101 % of control
Cc1ccc(C)c(NS(C)(=O)=O)c1,T/C,"dose: 50.0 mg/kg/injection, schedule: Q01DX001 (ip), vehicle: saline",96 % of control
same,T/C,[1],91 % of control
same,T/C,[2],102 % of control
same,T/C,[3],102 % of control
N=c1nc(N)c([N+](=O)[O-])c(N)n1O,T/C,"dose: 100.0 mg/kg/injection, schedule: Q01DX001 (ip), vehicle: carboxymethylcellulose (CMC)",100 % of control
same,T/C,"dose: 200.0 mg/kg/injection, schedule: Q01DX001 (ip), vehicle: carboxymethylcellulose (CMC)",97 % of control
same,T/C,"dose: 400.0 mg/kg/injection, schedule: Q01DX001 (ip), vehicle: carboxymethylcellulose (CMC)",100 % of control
